Assay results: patent EP0080283B1, “N-carboxyalkylproline-containing tripeptides” (SMITHKLINE BECKMAN CORPORATION, priority 1981, dated 1983)
Where a name gives a salt, the structure may show the parent alone. Values belong to the compound of their own block, whether it stands above or below them.

Legend:
anesthetized dogs = experiment: renal anesthetized dog screening protocol (renal vasodilator activity test, infusion); assay type: in vivo; set-up: renal blood flow / renal vascular resistance: dose or concentration left out as unconfirmed; settings: for renal vasodilators: primary test period of the screening protocol
From the text: Representative specific results are included in the examples.

[1] = system: spontaneously hypertensive rats (SHR); experiment: spontaneously hypertensive rat test, diuretic naturetic assay; assay type: in vivo
Protocol: In this test, male, Okamato-Aoki strain, spontaneously hypertensive rats, aged 16-19 weeks, are fasted, then, the following afternoon, the first dose of test compound is adminstered, along with a 25 ml/kg p.o. load of normal saline. The animals are, then, placed in metabolism cages and urine collected for three hours for analysis. Indirect systolic blood pressure and heart rate are measured by a tail-cuff. An identical second dose of test compound is adminstered. After two hours, blood pressure and heart rate are again tested. The test compound is usually administered p.o. or i.p. in saline with 0.02% ascorbic acid.

[2] = system: angiotensin coverting enzyme; experiment: angiotensin converting enzyme inhibiting activity; assay type: in vivo; settings: at 10 times its renally effective dose
[3] = system: dopamine-sensitive adenylate cyclase system; experiment: dopamine-sensitive adenylate cyclase system in vitro; assay type: biochemical
toad bladder = toad bladder anti-ADH assay
[4] = bradycardic effect (heart rate; test not specified); settings: in vivo
[5] = 30 µg/kg/min, 3 anesthetized dogs
[6] = accumulative effect at 300 dose, 2 anesthetized dogs
[7] = two anesthetized dogs, 3, 30 and 300

SMILES: NCCCC[C@H](NC(=O)[C@@H]1CCCN1CC(=O)O)C(=O)N1CCC[C@H]1C(=O)O [N-carboxymethyl-L-propyl-L-lysyl-L-proline, reference compound]
- renal vasodilators (anesthetized dogs): inactive

SMILES: O=C(O)CN1CCC[C@H]1C(=O)N[C@@H](Cc1ccccc1)C(=O)N1CCC[C@H]1C(=O)O [Example 2 barium salt, N-carboxymethyl-L-prolyl-L-phenylalanyl-L-proline]
- activity within the parameters of anesthetized dog screening test (anesthetized dogs; dog, in vivo): not active

SMILES: C[C@H](NC(=O)[C@@H]1CCCN1CC(=O)O)C(=O)N1CCC[C@H]1C(=O)O [Example 1 barium salt, N-carboxymethyl-L-propyl-L-alanyl-L-proline]
- decrease in renal vascular resistance (anesthetized dogs; [5]): 15%
- increase in renal blood flow (anesthetized dogs; [5]): 21.7%

SMILES: C[C@H](NC(=O)[C@@H]1CCCN1CCC(=O)O)C(=O)N1CCC[C@H]1C(=O)O [Example 4, N-(2-carboxyethyl)-L-prolyl-L-alanyl-L-proline]
- decrease in renal vascular resistance (anesthetized dogs; [6]): 23%
- increase in renal blood flow (anesthetized dogs; [6]): 34%

SMILES: O=C(O)CN1CCC[C@H]1C(=O)N[C@@H](Cc1ccccc1)C(=O)N1CCC[C@H]1C(=O)O [Example 2 sulfate, N-carboxymethyl-L-prolyl-L-phenylalanyl-L-proline]
- renal blood flow (anesthetized dogs; 30 and 300): increased renal blood flow

- stimulate or antagonize the dopamine-sensitive adenylate cyclase system [3]: did not stimulate or antagonize
SMILES: O=C(O)CN1CCC[C@H]1C(=O)NCCC(=O)N1CCC[C@H]1C(=O)O [Example 3, N-carboxymethyl-L-prolyi-o-alanyl-L-proline sulfate]
- ED15 (anesthetized dogs; Canis lupus familiaris, iv, anesthetized renal dog protocol, read-out: RVR-ED15): 0.012 mg/kg
- renal blood flow (anesthetized dogs; [7]): increased renal blood flow
- renal vascular resistance (anesthetized dogs; [7]): decreased renal vascular resistance
- Urine ([1]; 25 mg/kg i.p., n=3, control 3): 16 ml/rat
- K^9 ([1]; 25 mg/kg i.p., n=3, control 85.12): 242.53
- Na⊕ ([1]; 25 mg/kg i.p., n=3, control 126.76): 676.04
- Na^l, K° or urine excretion ([1]; 25 and 50 mg/kg i.p.): significant increase
- angiotensin coverting enzyme inhibiting activity [2]: did not have angiotensin coverting enzyme inhibiting activity
- toad bladder anti-ADH assay activity (toad bladder): nor was it active
- bradycardic effect [4]: weak bradycardic effect

SMILES: O=C(O)CN1CCCC1C(=O)NCC(=O)N1CCC[C@H]1C(=O)O (stereo partly drawn) [N-carboxymethyl-propyl-glycyl-L-proline, reference compound]
- renal vasodilators (anesthetized dogs): inactive

SMILES: CC(C(=O)O)N1CCC[C@H]1C(=O)NCCC(=O)N1CCC[C@H]1C(=O)O (stereo partly drawn) [N-(1-carboxyethyl)-L-propyl-β-alanyl-L-proline, reference compound]
- renal vasodilators (anesthetized dogs): inactive
